In this experiment the test system is L1210 leukemia ip in BDF1 mice, survival T/C. Kind of experiment: NCI In Vivo Anticancer Drug Screen. Data for tumor model L1210 Leukemia (intraperitoneal) in B6D2F1 (BDF1) mice. The following applies: endpoint: mean survival time, higher = longer survival. In a few lines: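 Antitumor effect is assessed in tumor-bearing animals. Survival in the compound arm is compared with a vehicle-dosed control arm and expressed as their quotient.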

Where [1] appears, read: dose: 100.0 mg/kg/injection, schedule: Q01DX001 (ip), vehicle: Klucel (hydroxypropylcellulose) (HPC).
Setting [2] is: dose: 100.0 mg/kg/injection, schedule: Q01DX009 (ip), vehicle: Klucel (hydroxypropylcellulose) (HPC).
Where [3] appears, read: dose: 100.0 mg/kg/injection, schedule: Q04DX003 (ip), vehicle: Klucel (hydroxypropylcellulose) (HPC).
[4] abbreviates: dose: 200.0 mg/kg/injection, schedule: Q01DX001 (ip), vehicle: Klucel (hydroxypropylcellulose) (HPC).
Setting [5] is: dose: 200.0 mg/kg/injection, schedule: Q01DX009 (ip), vehicle: Klucel (hydroxypropylcellulose) (HPC).
The mark [6] stands for this setting: dose: 200.0 mg/kg/injection, schedule: Q04DX003 (ip), vehicle: Klucel (hydroxypropylcellulose) (HPC).
[7] abbreviates: dose: 400.0 mg/kg/injection, schedule: Q01DX001 (ip), vehicle: Klucel (hydroxypropylcellulose) (HPC).
Setting [8] is: dose: 400.0 mg/kg/injection, schedule: Q01DX009 (ip), vehicle: Klucel (hydroxypropylcellulose) (HPC).
Where [9] appears, read: dose: 400.0 mg/kg/injection, schedule: Q04DX003 (ip), vehicle: Klucel (hydroxypropylcellulose) (HPC).
The mark [10] stands for this setting: dose: 100.0 mg/kg/injection, schedule: Q01DX009 (ip), vehicle: saline with Tween-80.
[11] abbreviates: dose: 200.0 mg/kg/injection, schedule: Q01DX009 (ip), vehicle: saline with Tween-80.
Setting [12] is: dose: 100.0 mg/kg/injection, schedule: Q01DX001 (ip), vehicle: carboxymethylcellulose (CMC).
The mark [13] stands for this setting: dose: 200.0 mg/kg/injection, schedule: Q01DX001 (ip), vehicle: carboxymethylcellulose (CMC).
Setting [14] is: dose: 400.0 mg/kg/injection, schedule: Q01DX001 (ip), vehicle: carboxymethylcellulose (CMC).
Setting [15] is: dose: 100.0 mg/kg/injection, schedule: Q01DX001 (ip), vehicle: saline.
[16] abbreviates: dose: 200.0 mg/kg/injection, schedule: Q01DX001 (ip), vehicle: saline.
Setting [17] is: dose: 400.0 mg/kg/injection, schedule: Q01DX001 (ip), vehicle: saline.
The mark [18] stands for this setting: dose: 100.0 mg/kg/injection, schedule: Q04DX002 (ip), vehicle: Klucel (hydroxypropylcellulose) (HPC).
The mark [19] stands for this setting: dose: 200.0 mg/kg/injection, schedule: Q04DX002 (ip), vehicle: Klucel (hydroxypropylcellulose) (HPC).
Where [20] appears, read: dose: 400.0 mg/kg/injection, schedule: Q04DX002 (ip), vehicle: Klucel (hydroxypropylcellulose) (HPC).

Values joined by “and” are separate entries in the source; they are usually repeats but may differ in a detail not shown here. Equal values may be shown once. Toxic doses and inconclusive results are not listed.

Consider `Cc1ccc([N+](=O)[O-])cc1NC(=O)N(C)Cc1ccc(Cl)cc1`, for which the T/C under setting [1] was 90 % of control; the T/C under setting [2] is 89 % of control and 90 % of control; the T/C under setting [3] was 102 % of control; the T/C under setting [4] is 98 % of control; the T/C under setting [5] is 94 % of control and 97 % of control; the T/C under setting [6] is 98 % of control. The T/C is 93 % of control under setting [7]; 93 % of control and 90 % of control under setting [8]; 100 % of control and 122 % of control under setting [9].
Turning to `O=C(/C(=N\O)c1ccc(Cl)cc1)c1ccc(Cl)cc1`, the T/C reads like this: (dose: 50.0 mg/kg/injection, schedule: Q01DX009 (ip), vehicle: saline with Tween-80) 100 % of control; under setting [10], 89 % of control; under setting [11], 92 % of control.
As for `c1ccc2n[se]nc2c1`, the T/C is, setting by setting: (dose: 12.5 mg/kg/injection, schedule: Q04DX003 (ip), vehicle: saline) 86 % of control; (dose: 25.0 mg/kg/injection, schedule: Q04DX003 (ip), vehicle: saline) 103 % of control.
On to `O=C(O)c1ccccc1C(=O)c1ccccc1`, for which the T/C by setting is: under setting [1], 97 % of control; under setting [4], 97 % of control; under setting [7], 95 % of control.
Consider `O=[N+]([O-])c1cc(C(F)(F)F)ccc1Cl`, for which the T/C is 102 % of control (dose: 100.0 mg/kg/injection, schedule: Q01DX009 (ip), vehicle: saline) and 97 % of control (dose: 200.0 mg/kg/injection, schedule: Q01DX009 (ip), vehicle: saline).
In the case of `CC(=O)OC1CCC2(C)C(CCC3C2C(=O)C(OC(C)=O)C2(C)C3CC3OC4(CCC(C)CO4)C(C)C32)C1` (centres undefined), the T/C under setting [10] was 90 % of control; the T/C under setting [11] is 95 % of control; the T/C (dose: 400.0 mg/kg/injection, schedule: Q01DX009 (ip), vehicle: saline with Tween-80) was 101 % of control.
As to `CCP(=O)(CC)CC`, the T/C reads like this: (dose: 1000.0 mg/kg/injection, schedule: Q01DX Z (ip), vehicle: saline) 104 % of control; (dose: 2000.0 mg/kg/injection, schedule: Q01DX Z (ip), vehicle: saline) 101 % of control.
In the case of `CC(C)CCC1(CCBr)C(=O)NC(=Nc2ccccc2)NC1=O` (centres undefined), the T/C is, setting by setting: under setting [12], 96 % of control; under setting [13], 102 % of control; under setting [14], 94 % of control.
Consider `COC(=O)C(OC)(OC)C(OC)OC`, for which the T/C under setting [15] was 97 % of control, the T/C under setting [16] was 103 % of control and the T/C under setting [17] is 106 % of control.
Consider `O=C(Nc1cccc(C2=NCCN2)c1)Nc1ccc(NC(=O)Nc2cccc(C3=NCCN3)c2)c(Cl)c1`, for which the T/C (dose: 0.25 mg/kg/injection, schedule: Q01DX Z (ip), vehicle: carboxymethylcellulose (CMC)) is 100 % of control; the T/C (dose: 0.5 mg/kg/injection, schedule: Q01DX Z (ip), vehicle: carboxymethylcellulose (CMC)) was 105 % of control; the T/C (dose: 1.0 mg/kg/injection, schedule: Q01DX Z (ip), vehicle: carboxymethylcellulose (CMC)) was 104 % of control; the T/C (dose: 2.0 mg/kg/injection, schedule: Q01DX Z (ip), vehicle: carboxymethylcellulose (CMC)) was 110 % of control; the T/C (dose: 16.0 mg/kg/injection, schedule: Q01DX Z (ip), vehicle: carboxymethylcellulose (CMC)) is 207 % of control; the T/C (dose: 16.0 mg/kg/injection, schedule: Q01DX Z (ip), vehicle: water) is 218 % of control. Besides, the T/C (dose: 31.0 mg/kg/injection, schedule: Q01DX Z (ip), vehicle: water) was 286 % of control; the T/C (dose: 62.0 mg/kg/injection, schedule: Q01DX Z (ip), vehicle: water) was 173 % of control; the T/C (dose: 62.0 mg/kg/injection, schedule: Q01DX Z (oral), vehicle: carboxymethylcellulose (CMC)) was 105 % of control; the T/C (dose: 125.0 mg/kg/injection, schedule: Q01DX Z (oral), vehicle: carboxymethylcellulose (CMC)) was 94 % of control; the T/C (dose: 250.0 mg/kg/injection, schedule: Q01DX Z (oral), vehicle: carboxymethylcellulose (CMC)) is 97 % of control; the T/C (dose: 500.0 mg/kg/injection, schedule: Q01DX Z (oral), vehicle: carboxymethylcellulose (CMC)) was 97 % of control.
As to `CC1(C)OC(=O)CC1c1ccc(Cl)cc1` (centres undefined), the T/C under setting [15] was 98 % of control, the T/C under setting [16] is 93 % of control and the T/C under setting [17] is 106 % of control.
Take `CCOC(=O)/C(C#N)=C/c1ccc(O)cc1`: the T/C is 96 % of control (dose: 100.0 mg/kg/injection, schedule: Q01DX Z (ip), vehicle: methylcellulose (MC)) and 96 % of control (dose: 200.0 mg/kg/injection, schedule: Q01DX Z (ip), vehicle: methylcellulose (MC)).
Turning to `CCNC(=O)OCc1cc(Cl)cc(Cl)c1OC(=O)NCC`, the T/C is 103 % of control under setting [12], 97 % of control under setting [13] and 106 % of control under setting [14].
`Nc1ncnc2sc(SCc3ccccc3)nc12`: the T/C (dose: 100.0 mg/kg/injection, schedule: Q04DX003 (ip), vehicle: saline with Tween-80) is 107 % of control; the T/C (dose: 200.0 mg/kg/injection, schedule: Q04DX003 (ip), vehicle: saline with Tween-80) was 102 % of control; the T/C (dose: 400.0 mg/kg/injection, schedule: Q04DX003 (ip), vehicle: saline with Tween-80) is 100 % of control.
As to `O=CNC(NC=O)c1ccccc1[N+](=O)[O-]`, the T/C by setting is: under setting [2], 101 % of control; under setting [3], 104 % of control; under setting [5], 98 % of control; under setting [6], 98 % of control; under setting [8], 97 % of control; under setting [9], 100 % of control.
Regarding `COc1c(NC(=O)c2c(Br)c(Br)c(Br)c(Br)c2C(=O)O)cccc1[N+](=O)[O-]`, the T/C by setting is: under setting [18], 94 % of control; under setting [19], 102 % of control; under setting [20], 118 % of control.
Take `CC(=O)Nc1ccc(OC(C)=O)cc1[N+](=O)[O-]`: the T/C reads like this: under setting [15], 105 % of control; under setting [16], 102 % of control; under setting [17], 102 % of control.
On to `[O-][N+](=C\c1ccccc1)/[N+]([O-])=C\c1ccccc1`, for which the T/C runs as follows: under setting [15], 98 % of control; under setting [16], 95 % of control; under setting [17], 98 % of control.
`CC(C)c1ccc(/C=N/NC(=S)Nc2ccccc2)cc1`: the T/C under setting [2] was 93 % of control, the T/C under setting [5] was 93 % of control and the T/C under setting [8] was 90 % of control.
On to `CCOP(=O)(Nc1ccc2c(c1)C(=O)c1ccccc1-2)OCC`, for which the T/C by setting is: (dose: 50.0 mg/kg/injection, schedule: Q01DX001 (ip), vehicle: carboxymethylcellulose (CMC)) 97 % of control; under setting [12], 103 % of control; under setting [13], 100 % of control; under setting [14], 103 % of control.
Regarding `Cc1cc(N=Cc2ccc(Cl)cc2)c(N=Cc2ccc(Cl)cc2)cc1C`, the T/C was 99 % of control (dose: 100.0 mg/kg/injection, schedule: Q01DX005 (ip), vehicle: Klucel (hydroxypropylcellulose) (HPC)); 108 % of control under setting [2]; 95 % of control under setting [18]; 96 % of control (dose: 200.0 mg/kg/injection, schedule: Q01DX005 (ip), vehicle: Klucel (hydroxypropylcellulose) (HPC)); 115 % of control under setting [5]; 95 % of control under setting [19]. The T/C reads like this: (dose: 400.0 mg/kg/injection, schedule: Q01DX005 (ip), vehicle: Klucel (hydroxypropylcellulose) (HPC)) 92 % of control; under setting [8], 97 % of control; under setting [20], 95 % of control.

(Values after PubChem BioAssay AID248 (DTP/NCI, 2004).)
